{"source": "ChEMBL document CHEMBL1145498", "about": "“A systematic interaction map of validated kinase inhibitors with Ser/Thr kinases” (Proc Natl Acad Sci U S A, 2007)"}
{"biological_target": "Calcium/calmodulin-dependent protein kinase type 1D (Homo sapiens) (UniProt Q8IU85)", "sequence (Q8IU85 whole entry, looked up)": "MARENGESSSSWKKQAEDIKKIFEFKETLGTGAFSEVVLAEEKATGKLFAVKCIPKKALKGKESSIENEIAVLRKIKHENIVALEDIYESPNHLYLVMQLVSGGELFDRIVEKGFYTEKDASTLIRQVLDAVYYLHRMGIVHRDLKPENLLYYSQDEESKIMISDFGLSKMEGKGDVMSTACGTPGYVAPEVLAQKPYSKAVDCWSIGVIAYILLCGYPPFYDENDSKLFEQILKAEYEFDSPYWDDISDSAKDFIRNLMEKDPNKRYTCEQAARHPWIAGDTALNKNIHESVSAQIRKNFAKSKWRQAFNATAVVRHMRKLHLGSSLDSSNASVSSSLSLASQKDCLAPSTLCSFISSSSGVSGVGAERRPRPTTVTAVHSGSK", "units": {"ΔTm": "°C"}}
{"smiles": "Nc1cccc(-c2cc3c(Oc4cccc(O)c4)ncnc3[nH]2)c1", "ΔTm": 0.3}
{"smiles": "O=C(O)c1cc(N(Cc2ccccc2O)Cc2cc(O)ccc2O)ccc1O", "note": "[LAVENDUSTIN A]", "ΔTm": 0.1}
{"smiles": "CCCNC(=O)Nc1ccc(Oc2ncnc3cc(OC)c(OC)cc23)cc1Cl", "note": "[KRN-633]", "ΔTm": 0.5}
{"smiles": "Cc1nc(N)sc1-c1ccnc(Nc2cccc([N+](=O)[O-])c2)n1", "ΔTm": 2.5}
{"biological_target": "Cyclin-dependent kinase 6 (Homo sapiens) (UniProt Q00534)", "sequence (Q00534 whole entry)": "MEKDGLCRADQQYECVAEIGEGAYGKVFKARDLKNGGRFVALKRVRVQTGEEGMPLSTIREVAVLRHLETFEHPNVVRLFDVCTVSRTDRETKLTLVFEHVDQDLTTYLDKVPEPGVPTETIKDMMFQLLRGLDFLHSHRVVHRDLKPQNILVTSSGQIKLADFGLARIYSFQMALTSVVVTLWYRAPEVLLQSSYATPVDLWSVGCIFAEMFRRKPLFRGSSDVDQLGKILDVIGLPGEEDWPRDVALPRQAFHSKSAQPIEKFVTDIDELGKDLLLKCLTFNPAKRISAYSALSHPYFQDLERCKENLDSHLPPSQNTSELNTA", "units": {"ΔTm": "°C"}}
{"smiles": "Nc1cccc(-c2cc3c(Oc4cccc(O)c4)ncnc3[nH]2)c1", "ΔTm": 0.9}
{"smiles": "O=C(O)c1cc(N(Cc2ccccc2O)Cc2cc(O)ccc2O)ccc1O", "note": "[LAVENDUSTIN A]", "ΔTm": 0.4}
{"smiles": "CCCNC(=O)Nc1ccc(Oc2ncnc3cc(OC)c(OC)cc23)cc1Cl", "note": "[KRN-633]", "ΔTm": 0.6}
{"smiles": "Cc1nc(N)sc1-c1ccnc(Nc2cccc([N+](=O)[O-])c2)n1", "ΔTm": 4.3}
{"biological_target": "Cyclin-dependent kinase-like 1 (Homo sapiens) (UniProt Q00532)", "sequence (Q00532 whole entry)": "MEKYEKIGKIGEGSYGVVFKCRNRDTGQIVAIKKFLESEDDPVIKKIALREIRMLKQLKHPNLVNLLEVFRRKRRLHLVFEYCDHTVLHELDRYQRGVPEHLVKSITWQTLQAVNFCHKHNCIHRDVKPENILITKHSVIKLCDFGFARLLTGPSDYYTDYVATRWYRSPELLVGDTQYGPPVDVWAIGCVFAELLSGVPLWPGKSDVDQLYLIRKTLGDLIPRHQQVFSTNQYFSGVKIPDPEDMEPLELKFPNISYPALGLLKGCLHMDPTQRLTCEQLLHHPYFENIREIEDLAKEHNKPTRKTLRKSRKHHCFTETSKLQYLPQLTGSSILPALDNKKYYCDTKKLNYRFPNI", "units": {"ΔTm": "°C"}}
{"smiles": "Nc1cccc(-c2cc3c(Oc4cccc(O)c4)ncnc3[nH]2)c1", "ΔTm": 0.6}
{"smiles": "O=C(O)c1cc(N(Cc2ccccc2O)Cc2cc(O)ccc2O)ccc1O", "note": "[LAVENDUSTIN A]", "ΔTm": -0.3}
{"smiles": "CCCNC(=O)Nc1ccc(Oc2ncnc3cc(OC)c(OC)cc23)cc1Cl", "note": "[KRN-633]", "ΔTm": 0.8}
{"smiles": "Cc1nc(N)sc1-c1ccnc(Nc2cccc([N+](=O)[O-])c2)n1", "ΔTm": 3.5}
{"biological_target": "Serine/threonine-protein kinase Chk2 (Homo sapiens, UniProt O96017)", "sequence (O96017 whole entry)": "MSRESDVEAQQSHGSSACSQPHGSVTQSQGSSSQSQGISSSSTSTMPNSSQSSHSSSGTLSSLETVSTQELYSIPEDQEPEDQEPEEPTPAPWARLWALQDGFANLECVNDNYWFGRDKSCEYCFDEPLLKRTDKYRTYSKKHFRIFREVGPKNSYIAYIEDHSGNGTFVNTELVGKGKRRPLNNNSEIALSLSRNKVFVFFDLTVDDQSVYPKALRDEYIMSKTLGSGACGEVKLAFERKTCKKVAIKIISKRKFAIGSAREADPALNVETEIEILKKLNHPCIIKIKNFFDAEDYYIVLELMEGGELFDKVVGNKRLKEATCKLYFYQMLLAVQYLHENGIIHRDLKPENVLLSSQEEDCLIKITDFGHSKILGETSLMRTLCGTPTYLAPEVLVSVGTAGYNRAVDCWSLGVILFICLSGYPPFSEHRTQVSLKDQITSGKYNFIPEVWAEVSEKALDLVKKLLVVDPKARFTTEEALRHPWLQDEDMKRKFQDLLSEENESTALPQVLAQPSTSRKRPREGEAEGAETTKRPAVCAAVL", "units": {"ΔTm": "°C"}}
{"smiles": "Nc1cccc(-c2cc3c(Oc4cccc(O)c4)ncnc3[nH]2)c1", "ΔTm": 1.7}
{"smiles": "O=C(O)c1cc(N(Cc2ccccc2O)Cc2cc(O)ccc2O)ccc1O", "note": "[LAVENDUSTIN A]", "ΔTm": 0.8}
{"smiles": "CCCNC(=O)Nc1ccc(Oc2ncnc3cc(OC)c(OC)cc23)cc1Cl", "note": "[KRN-633]", "ΔTm": 2.4}
{"smiles": "Cc1nc(N)sc1-c1ccnc(Nc2cccc([N+](=O)[O-])c2)n1", "ΔTm": 9.7}
{"biological_target": "Dual specificity protein kinase CLK1 (Homo sapiens) (UniProt P49759)", "units": {"ΔTm": "°C"}}
{"smiles": "Nc1cccc(-c2cc3c(Oc4cccc(O)c4)ncnc3[nH]2)c1", "ΔTm": 1.8}
{"smiles": "O=C(O)c1cc(N(Cc2ccccc2O)Cc2cc(O)ccc2O)ccc1O", "note": "[LAVENDUSTIN A]", "ΔTm": 0.5}
{"smiles": "CCCNC(=O)Nc1ccc(Oc2ncnc3cc(OC)c(OC)cc23)cc1Cl", "note": "[KRN-633]", "ΔTm": -1.7}
{"smiles": "Cc1nc(N)sc1-c1ccnc(Nc2cccc([N+](=O)[O-])c2)n1", "ΔTm": 7}
{"biological_target": "Glycogen synthase kinase-3 beta (Homo sapiens, UniProt P49841)", "sequence (P49841 whole entry, looked up)": "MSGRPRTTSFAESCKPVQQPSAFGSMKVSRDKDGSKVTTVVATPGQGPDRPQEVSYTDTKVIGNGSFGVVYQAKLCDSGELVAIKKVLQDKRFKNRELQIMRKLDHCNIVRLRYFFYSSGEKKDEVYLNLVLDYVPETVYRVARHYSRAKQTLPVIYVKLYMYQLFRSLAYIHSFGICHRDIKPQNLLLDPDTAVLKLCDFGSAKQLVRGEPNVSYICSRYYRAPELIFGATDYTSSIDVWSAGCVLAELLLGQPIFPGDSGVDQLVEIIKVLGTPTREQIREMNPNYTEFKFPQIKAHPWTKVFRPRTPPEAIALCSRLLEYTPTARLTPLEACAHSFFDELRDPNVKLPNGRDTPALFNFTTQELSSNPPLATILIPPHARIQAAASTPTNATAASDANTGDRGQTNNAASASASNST", "units": {"ΔTm": "°C"}}
{"smiles": "Nc1cccc(-c2cc3c(Oc4cccc(O)c4)ncnc3[nH]2)c1", "ΔTm": 7.6}
{"smiles": "O=C(O)c1cc(N(Cc2ccccc2O)Cc2cc(O)ccc2O)ccc1O", "note": "[LAVENDUSTIN A]", "ΔTm": -0.1}
{"smiles": "CCCNC(=O)Nc1ccc(Oc2ncnc3cc(OC)c(OC)cc23)cc1Cl", "note": "[KRN-633]", "ΔTm": 0.1}
{"smiles": "Cc1nc(N)sc1-c1ccnc(Nc2cccc([N+](=O)[O-])c2)n1", "ΔTm": 2.1}
{"biological_target": "Mitogen-activated protein kinase 11 (Homo sapiens, UniProt Q15759)", "sequence (Q15759 whole entry)": "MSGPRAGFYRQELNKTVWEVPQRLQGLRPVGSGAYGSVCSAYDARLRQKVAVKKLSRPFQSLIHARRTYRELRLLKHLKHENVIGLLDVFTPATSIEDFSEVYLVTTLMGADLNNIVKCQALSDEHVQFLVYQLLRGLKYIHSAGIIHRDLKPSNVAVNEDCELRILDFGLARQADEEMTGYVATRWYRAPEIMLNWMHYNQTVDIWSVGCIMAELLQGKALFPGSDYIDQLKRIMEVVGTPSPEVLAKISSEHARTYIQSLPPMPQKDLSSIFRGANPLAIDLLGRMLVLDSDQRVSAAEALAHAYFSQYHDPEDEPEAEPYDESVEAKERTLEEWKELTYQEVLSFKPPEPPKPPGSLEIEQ", "units": {"ΔTm": "°C"}}
{"smiles": "Nc1cccc(-c2cc3c(Oc4cccc(O)c4)ncnc3[nH]2)c1", "ΔTm": 5.4}
{"smiles": "O=C(O)c1cc(N(Cc2ccccc2O)Cc2cc(O)ccc2O)ccc1O", "note": "[LAVENDUSTIN A]", "ΔTm": 0.3}
{"smiles": "CCCNC(=O)Nc1ccc(Oc2ncnc3cc(OC)c(OC)cc23)cc1Cl", "note": "[KRN-633]", "ΔTm": -0.3}
{"smiles": "Cc1nc(N)sc1-c1ccnc(Nc2cccc([N+](=O)[O-])c2)n1", "ΔTm": 1.2}
{"biological_target": "T1, Serine/threonine-protein kinase Nek2 (Homo sapiens) (UniProt P51955)", "T1 sequence (whole entry)": "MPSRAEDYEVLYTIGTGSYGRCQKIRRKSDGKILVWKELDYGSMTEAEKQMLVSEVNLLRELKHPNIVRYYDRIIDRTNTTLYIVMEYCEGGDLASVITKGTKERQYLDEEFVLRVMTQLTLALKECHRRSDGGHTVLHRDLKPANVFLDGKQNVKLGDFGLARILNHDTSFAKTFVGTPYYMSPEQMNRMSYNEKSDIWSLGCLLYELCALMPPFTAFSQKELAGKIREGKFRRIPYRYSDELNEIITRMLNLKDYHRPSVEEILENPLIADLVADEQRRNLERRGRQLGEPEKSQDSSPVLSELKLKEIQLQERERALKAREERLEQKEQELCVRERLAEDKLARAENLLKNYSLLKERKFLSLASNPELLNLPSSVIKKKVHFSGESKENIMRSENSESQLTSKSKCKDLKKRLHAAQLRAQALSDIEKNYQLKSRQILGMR", "units": {"ΔTm": "°C"}}
{"smiles": "Nc1cccc(-c2cc3c(Oc4cccc(O)c4)ncnc3[nH]2)c1", "ΔTm": 2.6}
{"smiles": "O=C(O)c1cc(N(Cc2ccccc2O)Cc2cc(O)ccc2O)ccc1O", "note": "[LAVENDUSTIN A]", "ΔTm": 1.3}
{"smiles": "CCCNC(=O)Nc1ccc(Oc2ncnc3cc(OC)c(OC)cc23)cc1Cl", "note": "[KRN-633]", "ΔTm": -0.3}
{"smiles": "Cc1nc(N)sc1-c1ccnc(Nc2cccc([N+](=O)[O-])c2)n1", "ΔTm": 2.2}
{"biological_target": "Serine/threonine-protein kinase PAK 5 (Homo sapiens) (UniProt Q9P286)", "sequence (Q9P286 whole entry, looked up)": "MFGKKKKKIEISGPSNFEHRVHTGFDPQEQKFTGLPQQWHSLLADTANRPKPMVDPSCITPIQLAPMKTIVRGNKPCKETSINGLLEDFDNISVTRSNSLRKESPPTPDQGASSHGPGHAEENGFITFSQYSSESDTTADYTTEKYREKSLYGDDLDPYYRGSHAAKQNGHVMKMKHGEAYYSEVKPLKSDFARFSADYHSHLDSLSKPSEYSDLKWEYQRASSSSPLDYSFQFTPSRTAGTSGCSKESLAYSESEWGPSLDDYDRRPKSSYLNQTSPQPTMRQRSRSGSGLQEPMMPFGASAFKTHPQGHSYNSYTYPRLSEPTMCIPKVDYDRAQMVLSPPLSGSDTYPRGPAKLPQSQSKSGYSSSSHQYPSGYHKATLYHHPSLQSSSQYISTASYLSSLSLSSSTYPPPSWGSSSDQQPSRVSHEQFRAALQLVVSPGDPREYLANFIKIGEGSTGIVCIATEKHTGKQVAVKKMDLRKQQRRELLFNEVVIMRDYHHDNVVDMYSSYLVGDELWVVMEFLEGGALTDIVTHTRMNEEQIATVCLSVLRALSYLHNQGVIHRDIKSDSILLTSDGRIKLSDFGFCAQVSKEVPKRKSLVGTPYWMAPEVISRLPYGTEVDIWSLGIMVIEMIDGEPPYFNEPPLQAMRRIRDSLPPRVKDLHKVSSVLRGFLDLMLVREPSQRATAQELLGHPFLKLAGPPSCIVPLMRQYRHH", "units": {"ΔTm": "°C"}}
{"smiles": "Nc1cccc(-c2cc3c(Oc4cccc(O)c4)ncnc3[nH]2)c1", "ΔTm": 1.7}
{"smiles": "O=C(O)c1cc(N(Cc2ccccc2O)Cc2cc(O)ccc2O)ccc1O", "note": "[LAVENDUSTIN A]", "ΔTm": -0.5}
{"smiles": "CCCNC(=O)Nc1ccc(Oc2ncnc3cc(OC)c(OC)cc23)cc1Cl", "note": "[KRN-633]", "ΔTm": -0.2}
{"smiles": "Cc1nc(N)sc1-c1ccnc(Nc2cccc([N+](=O)[O-])c2)n1", "ΔTm": 7.1}
{"biological_target": "T2, 3-phosphoinositide-dependent protein kinase 1 (Homo sapiens) (UniProt O15530)", "T2 sequence (whole entry)": "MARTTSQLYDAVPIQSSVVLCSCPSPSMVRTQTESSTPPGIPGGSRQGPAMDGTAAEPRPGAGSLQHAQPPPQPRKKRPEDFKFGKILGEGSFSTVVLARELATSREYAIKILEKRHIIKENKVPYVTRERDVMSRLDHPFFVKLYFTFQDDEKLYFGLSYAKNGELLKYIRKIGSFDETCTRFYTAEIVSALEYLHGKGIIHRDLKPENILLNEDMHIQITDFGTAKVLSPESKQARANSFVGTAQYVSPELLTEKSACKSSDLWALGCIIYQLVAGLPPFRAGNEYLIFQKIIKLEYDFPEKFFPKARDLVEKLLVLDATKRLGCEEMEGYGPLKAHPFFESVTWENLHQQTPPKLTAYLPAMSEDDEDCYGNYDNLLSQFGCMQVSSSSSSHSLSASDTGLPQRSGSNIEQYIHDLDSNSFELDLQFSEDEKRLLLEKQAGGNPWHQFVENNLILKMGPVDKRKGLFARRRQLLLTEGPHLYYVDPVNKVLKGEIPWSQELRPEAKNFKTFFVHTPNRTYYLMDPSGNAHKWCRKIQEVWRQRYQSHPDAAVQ", "units": {"ΔTm": "°C"}}
{"smiles": "Nc1cccc(-c2cc3c(Oc4cccc(O)c4)ncnc3[nH]2)c1", "ΔTm": -0.1}
{"smiles": "O=C(O)c1cc(N(Cc2ccccc2O)Cc2cc(O)ccc2O)ccc1O", "note": "[LAVENDUSTIN A]", "ΔTm": 0.6}
{"smiles": "CCCNC(=O)Nc1ccc(Oc2ncnc3cc(OC)c(OC)cc23)cc1Cl", "note": "[KRN-633]", "ΔTm": -0.1}
{"smiles": "Cc1nc(N)sc1-c1ccnc(Nc2cccc([N+](=O)[O-])c2)n1", "ΔTm": 1.9}
{"biological_target": "Serine/threonine-protein kinase pim-1 (Homo sapiens) (UniProt P11309)", "sequence (P11309 whole entry, looked up)": "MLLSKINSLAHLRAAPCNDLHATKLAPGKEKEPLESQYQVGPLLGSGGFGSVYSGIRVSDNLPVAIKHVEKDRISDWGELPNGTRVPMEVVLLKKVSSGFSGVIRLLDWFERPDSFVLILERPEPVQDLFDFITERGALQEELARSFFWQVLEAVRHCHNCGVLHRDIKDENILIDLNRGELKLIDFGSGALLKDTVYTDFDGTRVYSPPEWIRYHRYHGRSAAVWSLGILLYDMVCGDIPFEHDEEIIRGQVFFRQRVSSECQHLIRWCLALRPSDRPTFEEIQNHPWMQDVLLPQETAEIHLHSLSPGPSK", "units": {"ΔTm": "°C"}}
{"smiles": "Nc1cccc(-c2cc3c(Oc4cccc(O)c4)ncnc3[nH]2)c1", "ΔTm": 0.7}
{"smiles": "O=C(O)c1cc(N(Cc2ccccc2O)Cc2cc(O)ccc2O)ccc1O", "note": "[LAVENDUSTIN A]", "ΔTm": 1.1}
{"smiles": "CCCNC(=O)Nc1ccc(Oc2ncnc3cc(OC)c(OC)cc23)cc1Cl", "note": "[KRN-633]", "ΔTm": 0.5}
{"smiles": "Cc1nc(N)sc1-c1ccnc(Nc2cccc([N+](=O)[O-])c2)n1", "ΔTm": 1.1}
{"biological_target": "T3, Serine/threonine-protein kinase PLK4 (Homo sapiens) (UniProt O00444)", "T3 sequence (whole entry)": "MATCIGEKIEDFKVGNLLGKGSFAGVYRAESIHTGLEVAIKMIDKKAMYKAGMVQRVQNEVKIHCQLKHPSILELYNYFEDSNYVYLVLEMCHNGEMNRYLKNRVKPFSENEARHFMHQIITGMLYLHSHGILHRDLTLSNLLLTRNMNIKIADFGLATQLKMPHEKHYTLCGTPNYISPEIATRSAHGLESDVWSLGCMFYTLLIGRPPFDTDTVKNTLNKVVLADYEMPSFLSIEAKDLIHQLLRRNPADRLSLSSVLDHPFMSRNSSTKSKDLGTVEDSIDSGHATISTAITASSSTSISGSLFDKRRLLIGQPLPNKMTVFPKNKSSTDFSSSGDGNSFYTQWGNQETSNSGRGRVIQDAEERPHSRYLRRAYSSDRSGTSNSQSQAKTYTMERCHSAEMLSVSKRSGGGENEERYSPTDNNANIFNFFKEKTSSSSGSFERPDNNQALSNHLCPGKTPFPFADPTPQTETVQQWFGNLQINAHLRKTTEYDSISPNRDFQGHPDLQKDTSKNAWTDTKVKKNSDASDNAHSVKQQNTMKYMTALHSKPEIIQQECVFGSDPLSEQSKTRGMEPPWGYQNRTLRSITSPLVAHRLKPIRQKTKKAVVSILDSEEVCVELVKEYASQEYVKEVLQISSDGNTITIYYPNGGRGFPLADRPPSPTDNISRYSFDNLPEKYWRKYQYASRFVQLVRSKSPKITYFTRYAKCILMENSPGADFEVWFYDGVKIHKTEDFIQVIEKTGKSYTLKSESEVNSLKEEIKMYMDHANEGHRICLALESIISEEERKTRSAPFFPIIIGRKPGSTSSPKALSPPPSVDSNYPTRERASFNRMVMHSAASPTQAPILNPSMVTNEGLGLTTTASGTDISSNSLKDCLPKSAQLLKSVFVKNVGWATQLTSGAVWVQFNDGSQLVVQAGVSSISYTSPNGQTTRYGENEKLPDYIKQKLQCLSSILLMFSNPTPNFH", "units": {"ΔTm": "°C"}}
{"smiles": "Nc1cccc(-c2cc3c(Oc4cccc(O)c4)ncnc3[nH]2)c1", "ΔTm": 0.8}
{"smiles": "O=C(O)c1cc(N(Cc2ccccc2O)Cc2cc(O)ccc2O)ccc1O", "note": "[LAVENDUSTIN A]", "ΔTm": 1.1}
{"smiles": "CCCNC(=O)Nc1ccc(Oc2ncnc3cc(OC)c(OC)cc23)cc1Cl", "note": "[KRN-633]", "ΔTm": 1}
{"smiles": "Cc1nc(N)sc1-c1ccnc(Nc2cccc([N+](=O)[O-])c2)n1", "ΔTm": 2.3}
{"biological_target": "Ribosomal protein S6 kinase alpha-3 (Homo sapiens) (UniProt P51812)", "units": {"ΔTm": "°C"}}
{"smiles": "Nc1cccc(-c2cc3c(Oc4cccc(O)c4)ncnc3[nH]2)c1", "ΔTm": 5.7}
{"smiles": "O=C(O)c1cc(N(Cc2ccccc2O)Cc2cc(O)ccc2O)ccc1O", "note": "[LAVENDUSTIN A]", "ΔTm": 1.7}
{"smiles": "CCCNC(=O)Nc1ccc(Oc2ncnc3cc(OC)c(OC)cc23)cc1Cl", "note": "[KRN-633]", "ΔTm": 10.7}
{"smiles": "Cc1nc(N)sc1-c1ccnc(Nc2cccc([N+](=O)[O-])c2)n1", "ΔTm": 10.7}
{"biological_target": "STE20-like serine/threonine-protein kinase (Homo sapiens) (UniProt Q9H2G2)", "sequence (Q9H2G2 whole entry, looked up)": "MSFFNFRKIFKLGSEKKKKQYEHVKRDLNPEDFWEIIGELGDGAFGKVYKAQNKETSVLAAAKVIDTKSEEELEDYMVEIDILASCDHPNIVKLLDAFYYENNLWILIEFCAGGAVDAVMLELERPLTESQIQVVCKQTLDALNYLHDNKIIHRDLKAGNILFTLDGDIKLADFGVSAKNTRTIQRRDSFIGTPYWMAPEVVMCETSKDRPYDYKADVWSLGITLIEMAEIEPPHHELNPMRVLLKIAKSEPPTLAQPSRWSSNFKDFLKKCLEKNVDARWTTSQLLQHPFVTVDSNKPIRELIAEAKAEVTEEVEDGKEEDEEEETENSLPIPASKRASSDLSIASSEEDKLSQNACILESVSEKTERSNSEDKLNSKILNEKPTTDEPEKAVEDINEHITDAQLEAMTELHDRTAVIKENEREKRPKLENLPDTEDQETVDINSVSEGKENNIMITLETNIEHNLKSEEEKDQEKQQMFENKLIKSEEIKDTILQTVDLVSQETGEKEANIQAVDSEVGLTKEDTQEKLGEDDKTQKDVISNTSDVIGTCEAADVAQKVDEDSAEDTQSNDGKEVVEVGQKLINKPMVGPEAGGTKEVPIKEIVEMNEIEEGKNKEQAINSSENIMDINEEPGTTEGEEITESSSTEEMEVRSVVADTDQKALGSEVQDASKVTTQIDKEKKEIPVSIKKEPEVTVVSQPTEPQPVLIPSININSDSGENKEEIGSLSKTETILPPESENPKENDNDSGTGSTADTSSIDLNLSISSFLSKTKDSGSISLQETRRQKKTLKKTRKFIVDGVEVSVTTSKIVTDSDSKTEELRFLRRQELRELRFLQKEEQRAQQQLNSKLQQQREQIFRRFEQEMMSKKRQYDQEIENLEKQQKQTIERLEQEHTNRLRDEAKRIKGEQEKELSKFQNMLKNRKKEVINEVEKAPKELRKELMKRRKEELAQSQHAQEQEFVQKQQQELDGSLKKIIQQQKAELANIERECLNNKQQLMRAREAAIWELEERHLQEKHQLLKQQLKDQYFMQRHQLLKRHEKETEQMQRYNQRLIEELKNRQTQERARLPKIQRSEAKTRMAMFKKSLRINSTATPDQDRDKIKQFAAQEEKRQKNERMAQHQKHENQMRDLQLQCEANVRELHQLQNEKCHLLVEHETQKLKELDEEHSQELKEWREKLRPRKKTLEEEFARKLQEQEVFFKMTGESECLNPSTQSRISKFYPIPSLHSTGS", "units": {"ΔTm": "°C"}}
{"smiles": "Nc1cccc(-c2cc3c(Oc4cccc(O)c4)ncnc3[nH]2)c1", "ΔTm": 6.7}
{"smiles": "O=C(O)c1cc(N(Cc2ccccc2O)Cc2cc(O)ccc2O)ccc1O", "note": "[LAVENDUSTIN A]", "ΔTm": -0.7}
{"smiles": "CCCNC(=O)Nc1ccc(Oc2ncnc3cc(OC)c(OC)cc23)cc1Cl", "note": "[KRN-633]", "ΔTm": 0.5}
{"smiles": "Cc1nc(N)sc1-c1ccnc(Nc2cccc([N+](=O)[O-])c2)n1", "ΔTm": 10}
{"biological_target": "Serine/threonine-protein kinase 26 (Homo sapiens) (UniProt Q9P289)", "units": {"ΔTm": "°C"}}
{"smiles": "Nc1cccc(-c2cc3c(Oc4cccc(O)c4)ncnc3[nH]2)c1", "ΔTm": 2.2}
{"smiles": "O=C(O)c1cc(N(Cc2ccccc2O)Cc2cc(O)ccc2O)ccc1O", "note": "[LAVENDUSTIN A]", "ΔTm": 0.4}
{"smiles": "CCCNC(=O)Nc1ccc(Oc2ncnc3cc(OC)c(OC)cc23)cc1Cl", "note": "[KRN-633]", "ΔTm": -0.1}
{"smiles": "Cc1nc(N)sc1-c1ccnc(Nc2cccc([N+](=O)[O-])c2)n1", "ΔTm": 0.4}
